Test results reported in patent publication US9447466B2 (NIPPON ZOKI PHARMACEUTICAL CO., LTD., priority 2010, dated 2016).

Columns and labels:
BDNF [1] = assay: Pharmacological Test 6: influence of intracellular signaling inhibitors on BDNF expression; type: cell-based, human; settings: SH-SY5Y cells; test substance 10 mNU/mL 24 hours; PD98059 10 μM, LY 294002 15 μM or SB 203580 0.5 μM added 30 minutes before completion; FIG. 7
Method: PD98059 (MEK inhibitor, 10 μM), LY 294002 (PI-3K inhibitor, 15 μM) or SB 203580 (p38 MAPK inhibitor, 0.5 μM) dissolved in a medium was added to a cultured product 30 minutes before completion of the cultivation. After that, the same as in the above Pharmacological Test 1, the extracted total RNA was subjected to a semi-quantitative RT-PCT, the PCR product was separated by agarose gel electrophoresis and the bands of BDNF and cyclophilin were visually detected.

ERK1/2 = assay: Inhibition of phosphorylation of ERK1/2 by MEK1/2 inhibitor; type: cell-based
BDNF [2] = assay: Pharmacological Test 8: influence on TrkB inhibition (BDNF expression, semi-quantitative RT-PCR); type: cell-based, human; settings: SH-SY5Y cells; test substance 10 mNU/mL 24 hours; K252a 500 nM or αTrkB 20 μg/mL added 30 minutes before completion; FIG. 9
Method: K252a (tyrosine kinase inhibitor, 500 nM) or rabbit IgG of human TrkB-specific antibody (αTrkB, 20 μg/mL) was added to the cultured product 30 minutes before completion of the cultivation. After that, the same as in the above Pharmacological Test 1, the extracted total RNA was subjected to a semi-quantitative RT-PCR, the PCR product was separated by agarose electrophoresis and the bands of BDNF and cyclophilin A were visually detected.

CREB [3] = assay: Inhibition of phosphorylation of CREB by p38MAPK inhibitor; type: cell-based
CREB [4] = assay: Pharmacological Test 5: effect to CREB pathway (immuno-blotting), phosphorylated CREB; type: cell-based; settings: SH-SY5Y cells; BDNF given from outside of the cells (human recombinant BDNF 50 pg/mL; 10 or 30 minutes)
Excerpt: (§1) Intracellular signaling molecules were detected by an immuno-blotting method using each of various specific antibodies produced to CREB (MAB 5432; Millipore), phosphorylated CREB (P-CREB: Clone 10E9; Millipore), P42/44 MAP kinase (ERK1/2; Cell Signaling Technology), phosphorylated P42/44 MAP kinase (P-MAPK: Tyr202/Tyr204; Cell Signaling Technology) and c-Fos (Gene Tex). […] After that, the cells were scraped off using a cell scraper (BD Bioscience), immediately washed with ice-cooled PBS and subjected to cytolysis according to a method of Mutoh, et al. (Proceedings of the National Academy of Sciences of the United States of America, vol. 92, pages 5087 to 5091, 1995). The cytolyzed product was subjected to an SDS-PAGE electrophoresis of 4 to 20% gel (ePAGEL; Atto Chemicals) and blotted to a PDVF (polyvinylidene fluoride) membrane. After said membrane was subjected to a blocking for 1 hour using Tris buffer physiological saline (TBS; 20 mM Tris-HCl, pH 7.5, 0.15M NaCl) containing 3% fat-free milk and 0.1% Tween 20 (TBS-T), a reaction with the primary antibody and the HRP-labeled secondary antibody was conducted in TBS-T for one hour at room temperature. Immuno-reactive bands of CREB, phosphorylated CREB, P42/44 MAP kinase, phosphorylated P42/44 MAP kinase and c-Fos were visually detected by a detection system by means of […] (ECL; GE Healthcare).

[5] = system: p42/44MAP kinase (ERK1/2); assay: Pharmacological Test 5: effect to CREB pathway (immuno-blotting), phosphorylated P42/44 MAP kinase; type: cell-based; settings: SH-SY5Y cells; BDNF given from outside of the cells (human recombinant BDNF 50 pg/mL; 10 or 30 minutes)
Excerpt: as §1

COc1cccc(-c2cc(=O)c3ccccc3o2)c1N [PD98059]
enhancement of BDNF expression by the test substance in presence of inhibitor (BDNF [1]): suppressed
phosphorylation of ERK1/2 (ERK1/2): inhibited

COC(=O)[C@@]1(O)C[C@H]2O[C@]1(C)n1c3ccccc3c3c4c(c5c6ccccc6n2c5c31)C(=O)NC4 [Example K252a]
BDNF expression enhanced by the test substance in presence of inhibitor or antibody (BDNF [2]): almost completely suppressed

C[S+]([O-])c1ccc(-c2nc(-c3ccncc3)c(-c3ccc(F)cc3)[nH]2)cc1 (stereo not shown) [SB203580]
enhancement of BDNF expression by the test substance in presence of inhibitor (BDNF [1]): suppressed
phosphorylation of CREB (CREB [3]): inhibited

B1: BDNF: human recombinant BDNF (Peprotech) given from outside of the cells (protein, UniProt P23560 19-247, looked up)
Neurotrophic factor BDNF …: APMKEANIRGQGGLAYPGVRTHGTLESVNGPKAGSRGLTSLADTFEHVIEELLDEDQKVRPNEENNKDADLYTSRVMLSSQVPLEPPLLFLLEEYKNYLDAANMSMRVRRHSDPARRGELSVCDSISEWVTAADKKTAVDMSGGTVTVLEKVPVSKGQLKQYFYETKCNPMGYTKEGCRGIDKRHWNSQCRTTQSYVRALTMDSKKRIGWRFIRIDTSCVCTLTIKRGR
phosphorylation of CREB (CREB [4]): enhanced
phosphorylation of 42/44MAP kinase [5]: enhanced
